# Measured values taken from patent US20240197867A1, “NEURAL CONTROL OF ADAPTIVE IMMUNITY” (The Feinstein Institutes for Medical Research, priority 2021, published 2024).
# Molecular target: T1, Gi-DREADD (hM4Di) on TRPV1+ neurons (Homo sapiens, UniProt P08173, A203G/Y113C)
# T1 construct: expressed in transfected cells; host or cells: TRPV1+ neurons of TRPV1Cre/Gi-DREADD transgenic mice (TRPV1Cre x R26-LSL-Gi-DREADD), in vivo
# T1 sequence (P08173 1-479 Y113C/A203G): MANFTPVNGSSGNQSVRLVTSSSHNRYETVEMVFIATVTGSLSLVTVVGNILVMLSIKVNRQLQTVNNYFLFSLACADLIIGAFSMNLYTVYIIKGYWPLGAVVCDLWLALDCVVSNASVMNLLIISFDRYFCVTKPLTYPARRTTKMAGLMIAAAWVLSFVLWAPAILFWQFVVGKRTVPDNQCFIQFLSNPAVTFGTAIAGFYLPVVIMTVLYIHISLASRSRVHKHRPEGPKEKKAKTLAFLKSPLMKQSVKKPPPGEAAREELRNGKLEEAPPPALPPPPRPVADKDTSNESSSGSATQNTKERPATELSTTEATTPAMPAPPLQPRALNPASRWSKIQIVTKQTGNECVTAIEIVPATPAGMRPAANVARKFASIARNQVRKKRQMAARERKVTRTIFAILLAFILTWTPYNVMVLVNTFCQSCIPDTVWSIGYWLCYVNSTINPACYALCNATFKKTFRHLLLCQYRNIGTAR
# Experiment: Chemogenetic silencing of TRPV1+ neurons before intratracheal NP27-OVA immunization; NP-specific antibody titer by ELISA
# Format: in vivo
# Settings: TRPV1-Gi-DREADD mice; CNO intraperitoneally 30 minutes prior to intratracheal immunization with NP27-OVA; D14 post-immunization; n=11; p=0.0017 vs vehicle
# Procedure: FIG. 1. Silencing of sensory nerves at the time of primary immunization impacts antigen specific antibody responses. TRPV1^Cre/Gi-DREADD mice were administered with vehicle (DMSO) or CNO 30 min prior to immunization. Titer of NP-specific antibodies were monitored using ELISA.
# Using an intra-tracheal instillation technique, specific antigens were delivered in the lung. Tracheal instillations are preferred methodology, over inhalation protocols that may primarily target the upper respiratory tract. This allows for making subsequent physiological measurements on test animals, or reinstallation using the same animal. Also, the dose of the inoculum introduced into the lungs can be carefully determined and more accurately delivered to ensure animal recovery. […] TRPV1+ neurons were selectively silenced at the time of immunization using a chemogenetic mouse model. The Gi-DREADD, also known as human muscarinic receptor 4 (hM4Di), is a mutated muscarinic acetylcholine receptor that, when activated by its ligand, CNO, initiates the inhibitory G-protein signaling cascade that inhibits neuronal signaling and/or excitability. TRPV1Cre/Gi-DREADD mice that express Gi-DREADD on TRPV1+ neurons were generated by crossing TRPV1Cre mice with R26-LSLGi-DREADD mice controls. […] Antibody levels were assessed over time. […]
structure (smiles),measurement,value
"C[N+]1([O-])CCN(C2=Nc3cc(Cl)ccc3Nc3ccccc32)CC1 [CNO, clozapine-N-oxide]","Anti-NP IgG1, Mean±SEM","42,525+14,641 U/mL"
